Data from patent US20250255984A1, “MNO NANOMATERIAL BASED INHIBITORS OF INFLAMMATION AND CANCER METASTASIS” (priority 2022, published 2025).
“Also recorded” adds a separate entry of the source.

Tests used:
calf thymus DNA = assay: PicoGreen DNA-binding assay; conditions: TE buffer, different material:DNA mass ratios, unbound PicoGreen-labeled DNA
Description: The fluorescence intensity of the unbound PicoGreen®-DNA complex at 520 nm was measured with a multiwell plate reader via excitation at 490 nm.
Inflammatory circulating cfDNA released by PTT-damaged host cells might cause a severe inflammatory response, which may be mitigated by the scavenging of cfDNA. Therefore, to interrogate the cfDNA scavenging ability of the various nanoparticles, the inventors investigated the calf thymus DNA binding affinity of the nanoparticles in Tris-EDTA (TE) buffer with and without 10% FBS by measuring unbound PicoGreen®-labeled DNA (FIGS. 5D and 5E).

HEK-Blue hTLR9 cells = assay: Agonist-induced TLR activation, HEK-Blue hTLR9 SEAP reporter cells; format: cell-based, human; conditions: dose-dependent, presence or absence of FBS, 24 hours
Description: (§1) HEK-Blue hTLR3, hTLR8, and hTLR9 cells were obtained by co-transfecting the hTLR gene and an optimized secreted embryonic alkaline phosphatase (SEAP) reporter gene into HEK293 cells. HEK-Blue hTLR cells were cultured and maintained in DMEM with 10% FBS and 1% penicillin-streptomycin. […] After 24 hours, the supernatants were collected and mixed with Quanti-Blue™. TLR activation associated with SEAP activity was determined with a multiwell plate reader by measuring the OD at 620 nm. The cell densities (in a 96 well plate) used were 8×10^4 cells/well for HEK-Blue hTLR9 cells, 5×10^4 cells/well for HEK-Blue hTLR3 cells, and 4×10^4 cells/well for HEK-Blue hTLR8 cells.
(§2) We further studied nanoparticle-mediated inhibition of proinflammatory molecules-induced TLR activation by using HEK-Blue human TLR (hTLR) cells.
(§3) HEK-Blue hTLR3, hTLR8 and hTLR9 were obtained by co-transfecting the hTLR gene and an optimized secreted embryonic alkaline phosphatase (SEAP) reporter gene into HEK293 cells. HEK-Blue hTLR cells were cultured and maintained in DMEM with 10% FBS and 1% penicillin-streptomycin. […] TLR activation associated with SEAP activity was determined with a multiwell plate reader by measuring the OD at 620 nm.

HEK-Blue hTLR3 cells = assay: Agonist-induced TLR activation, HEK-Blue hTLR3 SEAP reporter cells; format: cell-based, human; conditions: dose-dependent, presence or absence of FBS, 24 hours
Description: as §1, §2, §3

HEK-Blue hTLR4 cells = assay: Agonist-induced TLR activation, HEK-Blue hTLR4 reporter cells; format: cell-based, human; conditions: dose-dependent, presence or absence of FBS, 24 hours
Description: as §2

TNF-α = TNF-α production by activated RAW264.7 macrophages; format: cell-based, murine; conditions: 24 h, 50 and 100 μg/ml
Description: (§4) TLRs recognize a variety of PAMPs and DAMPs that induce the secretion of several proinflammatory cytokines. Inhibiting TLR activation and blocking DAMP-TLR interactions is a promising strategy for alleviating PTT-induced inflammation and reducing tumor regeneration and metastasis.

COX-2 mRNA = COX-2 mRNA expression (RT-qPCR) in activated RAW264.7 cells; format: cell-based, murine; conditions: 24 h
Description: as §4

4T1 tumor = assay: 4T1 metastasis tumor model, treatment with or without photothermal therapy; format: in vivo, Balb/c mice
[1] = without laser, intravenous three times per week

Row | SMILES | DNA binding affinity (calf thymus DNA) | CpG-induced activation of HEK-Blue hTLR9 cells (HEK-Blue hTLR9 cells) | poly (I:C)-induced activation of HEK-Blue hTLR3 cells (HEK-Blue hTLR3 cells) | LPS-induced activation of HEK-Blue hTLR4 cells (HEK-Blue hTLR4 cells) | TNF-α production (TNF-α; CpG-activated RAW264.7 cells) | TNF-α production (TNF-α; LPS-activated RAW264.7 cells) | COX-2 mRNA expression (COX-2 mRNA; CpG-activated RAW264.7 cells) | COX-2 mRNA expression (COX-2 mRNA; LPS-activated RAW264.7 cells) | survival rates of mice (4T1 tumor; after PTT) | tumor recurrence and metastasis (4T1 tumor; after laser (PTT)) | body weight of the mice (4T1 tumor; after laser (PTT), intravenous three times per week) | cytokine levels (IL-6, TNF-α and IL-1 beta) in mouse serum, ELISA (4T1 tumor; after laser (PTT), versus PBS and laser groups) | body weight of the mice (4T1 tumor; [1]) | size of the tumors / tumor suppression (4T1 tumor; [1])
1 | COc1cc(/C=C/C(=O)CC(=O)/C=C/c2ccc(O)c(OC)c2)ccc1O [curcumin] | negligible DNA binding ability | negligible inhibitory effect | negligible inhibitory effect | negligible inhibitory effect | slightly reduced | only slightly reduced | alleviated the generation of COX-2 mRNA in CpG-induced RAW264.7 cells to some extent | no obvious inhibitory effect | greatly improved | inhibited tumor recurrence and metastasis | increased body weight | clearly lower | did not show obvious effects | did not show obvious effects; also recorded: small effect
2 | O=C(OC[C@H]1O[C@@H](OC(=O)c2cc(O)c(O)c(OC(=O)c3cc(O)c(O)c(O)c3)c2)[C@H](OC(=O)c2cc(O)c(O)c(OC(=O)c3cc(O)c(O)c(O)c3)c2)[C@@H](OC(=O)c2cc(O)c(O)c(OC(=O)c3cc(O)c(O)c(O)c3)c2)[C@@H]1OC(=O)c1cc(O)c(O)c(OC(=O)c2cc(O)c(O)c(O)c2)c1)c1cc(O)c(O)c(OC(=O)c2cc(O)c(O)c(O)c2)c1 [tannic acid] | can bind to DNA |  |  |  |  |  |  |  |  |  |  |  |  | 
